Reference: patent US11760773B2, “Small molecule drug conjugates of gemcitabine monophosphate” (MaveriX Oncology, Inc., priority 2018, dated 2023)

How the values were obtained:
[1] = Comparative plasma PK of Int 1-4 versus gemcitabine in mouse (study a); assay type: in vivo; settings: plasma, CD-1 mice; for MRT inf: read-out: MRT0-inf; for MRT last: read-out: MRT0-last
[2] = Int 1-4 and gemcitabine comparative PK in male cynomolgus monkey (study g); assay type: in vivo; settings: plasma, male cynomolgus monkey; for AUC(0-inf): read-out: AUC0-inf; for MRT inf: read-out: MRT0-inf; for MRT last: read-out: MRT0-last; for Vd: read-out: Vdss
Experimental: Objectives: to compare the plasma pharmacokinetics and stability of Int 1-4 versus gemcitabine in plasma following single intravenous infusion administration of Int 1-4 at 5 mg/kg and 10 mg/kg with equimolar gemcitabine at 2.65 mg/kg and 5.29 mg/kg in male cynomolgous monkeys
PK measurements: compare PK parameters C0, CL, Vdss, Cmax, tmax, t1/2, AUC(0-t), AUC(0-inf), MRT(0-t), MRT(0-inf) for Int 1-4 with gemcitabine

[3] = Comparative dog plasma PK of Int 1-4 versus gemcitabine (study k); assay type: in vivo; settings: male beagle dog; for AUC(0-inf): read-out: AUC0-inf; for Cmax: read-out: Cmax; for MRT inf: read-out: MRT0-inf; for MRT last: read-out: MRT0-last
Experimental: Objectives: to compare the plasma pharmacokinetics and stability of Int-4 in plasma following single intravenous infusion administration of Int 1-4 at 5 mg/kg and 10 mg/kg versus gemcitabine at 5 mg/kg in the male Beagle dog

[4] = Comparative PK of Int 1-4 versus gemcitabine in rat plasma (study i); assay type: in vivo, Sprague-Dawley rats; settings: for half-life: Sprague-Dawley, rat, iv; for MRT inf: read-out: MRT0-inf; for MRT last: read-out: MRT0-last
Excerpt: PK measurements: compare PK parameters C0, CL, Vdss, Cmax, tmax, t1/2, AUC(0-t), AUC(0-inf), MRT(0-t), MRT(0-inf) for Int 1-4 and gemcitabine.

[5] = Int 1-4 dog plasma PK (study j); assay type: in vivo; settings: male beagle dog; for AUC(0-inf): read-out: AUC0-inf; for MRT inf: read-out: MRT0-inf; for MRT last: read-out: MRT0-last
Experimental: Objectives: to compare the plasma pharmacokinetics and stability of Int 1-4 in plasma following single intravenous infusion administration of t 1-4 at 10 mg/kg and 20 mg/kg in the male Beagle dog.

[6] = Comparative plasma PK of Compound 1 versus Int 1-4 in male CD-1 mice (study b); assay type: in vivo; settings: male, CD-1, mouse, iv
Experimental: Objectives: to compare the plasma pharmacokinetics and stability of Compound 1 with its non-phosphorylated SMDC analog (Int 1-4) and in plasma following a single intravenous infusion administration of Compound 1 at 11.6 mg/kg and 23.2 mg/kg with Int 1-4 (formulation F1 & F2) at 10.0 mg/kg in male CD-1 mice
PK measurements: compare PK parameters C0, CL, Vdss, Cmax, tmax, t1/2, AUC(0-t), AUC(0-inf), MRT(0-t), MRT(0-inf) for Compound 1 and Int 1-4

[7] = mouse, after iv Int 1-4 9.4 mg/kg
[8] = mouse, after iv gemcitabine 5.29 mg/kg
[9] = after iv gemcitabine 5.29 mg/kg
[10] = after iv Int 1-4 5 mg/kg (study g)
[11] = after iv Int 1-4 10 mg/kg (study g)
[12] = after iv gemcitabine 2.65 mg/kg
[13] = after iv Int 1-4 5 mg/kg (study k)
[14] = after iv Int 1-4 10 mg/kg (study k)
[15] = plasma, Sprague-Dawley rat, after iv Int 1-4 10.0 mg/kg
[16] = plasma, Sprague-Dawley rat, after iv gemcitabine 4.47 mg/kg
[17] = after iv Int 1-4 10 mg/kg (study j)
[18] = after iv Int 1-4 20 mg/kg (study j)
[19] = 10 mg/kg, after iv Int 1-4 10.0 mg/kg, Formulation 1
[20] = 10 mg/kg, after iv Int 1-4 10.0 mg/kg, Formulation 2
[21] = 11.6 mg/kg, after iv Compound 1 11.6 mg/kg
[22] = 23.2 mg/kg, after iv Compound 1 23.2 mg/kg

`Nc1ccn([C@@H]2O[C@H](CO)[C@@H](O)C2(F)F)c(=O)n1` [Gemcitabine, gemcitabine] gave an AUC(0-t) [1, 7] of 64.9 ng·h/mL, a half-life [1, 7] of 58.1 min and an AUC(0-inf) ([1]; mouse, after iv Int 1-4 9.4 mg/kg, read-out: AUC0-inf) of 74.1 ng·h/mL. For the same compound, the Cmax ([1]; mouse, after iv Int 1-4 9.4 mg/kg, read-out: Cmax) was 81.9 ng/mL, the MRT inf [1, 7] was 76.2 min and the MRT last [1, 7] was 52.5 min. The Tmax ([1]; mouse, after iv Int 1-4 9.4 mg/kg, read-out: Tmax) was 8.34 min, the C0 [1, 8] was 6430 ng/mL and the clearance [1, 8] was 59 mL/min/kg. For the same compound, the half-life [1, 8] was ~54 min, the MRT inf [1, 8] was 32.5 min and the MRT last [1, 8] was 30.2 min. For the same compound, the Vd ([1]; mouse, after iv gemcitabine 5.29 mg/kg, read-out: Vdss) was 1.84 L/kg, the AUC0-inf/AUC0-last ([1]; after iv Int 1-4 9.4 mg/kg) was 116% and the AUC0-inf/AUC0-last [1, 9] was 101%. It also gave an AUC0-last [1, 9] of 1383 ng·h/mL, an AUC(0-inf) [1, 9] of 1393 ng·h/mL and a T1/2 [1, 9] of 52.1 min. The AUC(0-t) [2, 10] was 5.37 ng·h/mL, the half-life [2, 10] was 9 min and the AUC(0-inf) [2, 10] was 8.13 ng·h/mL. The MRT inf [2, 10] was 14.4 min, the MRT last [2, 10] was 9 min and the Vd [2, 10] was 0.349 L/kg. It also gave an AUC(0-t) [2, 11] of 16.2 ng·h/mL, a half-life [2, 11] of 10.8 min and an AUC(0-inf) [2, 11] of 17.5 ng·h/mL. The MRT inf [2, 11] was 15.6 min, the MRT last [2, 11] was 12.6 min and the AUC(0-t) [2, 12] was 154 ng·h/mL. The C0 [2, 12] was 17000 ng/mL, the clearance [2, 12] was 323 mL/min/kg and the half-life [2, 12] was 1.2 min. The AUC(0-inf) [2, 12] was 154 ng·h/mL, the MRT inf [2, 12] was 0.6 min and the MRT last [2, 12] was 0.6 min. For the same compound, the Vd [2, 12] was 0.221 L/kg, the AUC(0-t) [3, 13] was 2330 ng·h/mL and the half-life [3, 13] was 121 min. It also gave an AUC(0-inf) [3, 13] of 2390 ng·h/mL, a Cmax [3, 13] of 872 ng/mL and an MRT inf [3, 13] of 2.7 h. It also gave an MRT last [3, 13] of 2.48 h, an AUC(0-t) [3, 14] of 4140 ng·h/mL and a half-life [3, 14] of 96 min. It also gave an AUC(0-inf) [3, 14] of 4290 ng·h/mL, an MRT inf [3, 14] of 2.45 h and an MRT last [3, 14] of 2.16 h. It also gave an AUC(0-t) [3, 9] of 8230 ng·h/mL, a C0 [3, 9] of 11500 ng/mL and a clearance [3, 9] of 11 mL/min/kg. The half-life [3, 9] was 122 min, the AUC(0-inf) [3, 9] was 8600 ng·h/mL and the Cmax [3, 9] was 8620 ng/mL. For the same compound, the MRT last [3, 9] was 2.19 h, the Vd ([3]; after iv gemcitabine 5.29 mg/kg, read-out: Vdss) was 1.61 L/kg and the half-life ([4]; plasma, 4.47 mg/kg, plasma, Sprague-Dawley rat, after iv gemcitabine 4.47 mg/kg) was ~198 min. For the same compound, the half-life ([4]; plasma, 10 mg/kg, plasma, Sprague-Dawley rat, after iv Int 1-4 10.0 mg/kg) was ~566 min, the AUC0-inf/AUC0-last [4, 15] was 235% and the AUC(0-inf) [4, 15] was 6000 ng·h/mL. The AUC(0-t) [4, 15] was 2760 ng·h/mL, the T1/2 [4, 15] was 9.43 h and the MRT inf [4, 15] was 13.8 h. For the same compound, the MRT last [4, 15] was 3.38 h, the clearance ([4]; plasma, Sprague-Dawley rat, after iv gemcitabine) was 4.36 mL/min/kg and the AUC0-inf/AUC0-last [4, 16] was 122%. It also gave an AUC(0-inf) [4, 16] of 18000 ng·h/mL, an AUC(0-t) [4, 16] of 14700 ng·h/mL and a C0 [4, 16] of 8410 ng/mL. For the same compound, the T1/2 [4, 16] was 3.26 h, the MRT inf [4, 16] was 4.63 h and the MRT last [4, 16] was 2.82 h. For the same compound, the Vd ([4]; plasma, Sprague-Dawley rat, after iv gemcitabine 4.47 mg/kg, read-out: Vdss) was 1.21 L/kg, the “plasma half-life in rats relative to mice” value ([4]; rat versus mouse plasma, iv gemcitabine) was 3 × and the AUC(0-t) [5, 17] was 6160 ng·h/mL. For the same compound, the half-life [5, 17] was 186 min, the AUC(0-inf) [5, 17] was 6180 ng·h/mL and the MRT inf [5, 17] was 3.56 h. For the same compound, the MRT last [5, 17] was 3.47 h, the AUC(0-t) [5, 18] was 7690 ng·h/mL and the half-life [5, 18] was 213 min. The AUC(0-inf) [5, 18] was 7880 ng·h/mL, the MRT inf [5, 18] was 3.28 h and the MRT last [5, 18] was 2.69 h. For the same compound, the AUC(0-t) [6, 19] was 98.6 ng·h/mL, the half-life [6, 19] was 97.2 min and the AUC(0-inf) ([6]; 10 mg/kg, after iv Int 1-4 10.0 mg/kg, Formulation 1, read-out: AUC0-inf) was 120 ng·h/mL. For the same compound, the Cmax ([6]; 10 mg/kg, after iv Int 1-4 10.0 mg/kg, Formulation 1, read-out: Cmax) was 107 ng/mL, the MRT inf ([6]; 10 mg/kg, after iv Int 1-4 10.0 mg/kg, Formulation 1, read-out: MRT0-inf) was 1.98 h and the MRT last ([6]; 10 mg/kg, after iv Int 1-4 10.0 mg/kg, Formulation 1, read-out: MRT0-last) was 1.15 h. It also gave a Tmax ([6]; 10 mg/kg, after iv Int 1-4 10.0 mg/kg, Formulation 1, read-out: Tmax) of 3.67 min, an AUC(0-t) [6, 20] of 85.1 ng·h/mL and a half-life [6, 20] of 99.6 min. The AUC(0-inf) ([6]; 10 mg/kg, after iv Int 1-4 10.0 mg/kg, Formulation 2, read-out: AUC0-inf) was 102 ng·h/mL, the Cmax ([6]; 10 mg/kg, after iv Int 1-4 10.0 mg/kg, Formulation 2, read-out: Cmax) was 93.6 ng/mL and the MRT inf ([6]; 10 mg/kg, after iv Int 1-4 10.0 mg/kg, Formulation 2, read-out: MRT0-inf) was 2.1 h. The MRT last ([6]; 10 mg/kg, after iv Int 1-4 10.0 mg/kg, Formulation 2, read-out: MRT0-last) was 1.25 h, the Tmax ([6]; 10 mg/kg, after iv Int 1-4 10.0 mg/kg, Formulation 2, read-out: Tmax) was 2 min and the AUC(0-t) [6, 21] was 97.9 ng·h/mL. It also gave a half-life [6, 21] of 62.4 min, an AUC(0-inf) ([6]; 11.6 mg/kg, after iv Compound 1 11.6 mg/kg, read-out: AUC0-inf) of 112 ng·h/mL and a Cmax ([6]; 11.6 mg/kg, after iv Compound 1 11.6 mg/kg, read-out: Cmax) of 152 ng/mL. The MRT inf ([6]; 11.6 mg/kg, after iv Compound 1 11.6 mg/kg, read-out: MRT0-inf) was 1.41 h, the MRT last ([6]; 11.6 mg/kg, after iv Compound 1 11.6 mg/kg, read-out: MRT0-last) was 1.01 h and the Tmax ([6]; 11.6 mg/kg, after iv Compound 1 11.6 mg/kg, read-out: Tmax) was 1.5 min. It also gave an AUC(0-t) [6, 22] of 202 ng·h/mL, a half-life [6, 22] of 61.8 min and an AUC(0-inf) ([6]; 23.2 mg/kg, after iv Compound 1 23.2 mg/kg, read-out: AUC0-inf) of 218 ng·h/mL. For the same compound, the Cmax ([6]; 23.2 mg/kg, after iv Compound 1 23.2 mg/kg, read-out: Cmax) was 222 ng/mL, the MRT inf ([6]; 23.2 mg/kg, after iv Compound 1 23.2 mg/kg, read-out: MRT0-inf) was 1.4 h and the MRT last ([6]; 23.2 mg/kg, after iv Compound 1 23.2 mg/kg, read-out: MRT0-last) was 1.11 h. It also gave a Tmax ([6]; 23.2 mg/kg, after iv Compound 1 23.2 mg/kg, read-out: Tmax) of 2 min.
